Laboratory results published in patent US7118895B2, “Process for producing aglycon by using diglycosidase and flavor-improved food containing the aglycon and converting agent to be used in the process” (Amano Enzyme Inc., priority 2000, dated 2006).

Test system: Crude diglycosidase
Test: Examination of substrate concentration in the conversion into isoflavone aglycons by diglycosidase using soybean materials;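 also: percent of the isoflavone family total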
Type: biochemical, Penicillium multicolor IAM7153
In short: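 Reaction at 55° C, shaken, pH 4.0 (20 mM acetate), using crude diglycosidase from a 1.88 AU/mL enzyme solution on soy flour, soymilk, defatted soybean or soy protein concentrate at 2, 5, 10, 20 or 30% (w/v). Isoflavone aglycons quantified by HPLC of ethanol extracts at 0, 1, 3, 6 h.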

With `COc1cc2c(=O)c(-c3ccc(O)cc3)coc2cc1O[C@@H]1O[C@H](CO)[C@@H](O)[C@H](O)[C@H]1O` [glycitin] the “Decomposition efficiency: ratio of each glycoside/aglycon within its isoflavone family” value (defatted soybean, substrate concentration 10%, heat treatment of enzyme no, reaction time 3 h) was “not detected”, the “Decomposition efficiency: ratio of each glycoside/aglycon within its isoflavone family” value (defatted soybean, substrate concentration 10%, heat treatment of enzyme no, reaction time 6 h) was “not detected” and the “Decomposition efficiency: ratio of each glycoside/aglycon within its isoflavone family” value (defatted soybean, substrate concentration 10%, heat treatment of enzyme yes, reaction time 6 h) was “not detected”. For the same compound, the “Decomposition efficiency: ratio of each glycoside/aglycon within its isoflavone family” value (roasted soy flour, substrate concentration 2%, heat treatment of enzyme no, reaction time 0 h) was 50.2%, the “Decomposition efficiency: ratio of each glycoside/aglycon within its isoflavone family” value (roasted soy flour, substrate concentration 2%, heat treatment of enzyme no, reaction time 1 h) was “not detected” and the “Decomposition efficiency: ratio of each glycoside/aglycon within its isoflavone family” value (roasted soy flour, substrate concentration 2%, heat treatment of enzyme no, reaction time 3 h) was “not detected”. The “Decomposition efficiency: ratio of each glycoside/aglycon within its isoflavone family” value (roasted soy flour, substrate concentration 2%, heat treatment of enzyme no, reaction time 6 h) was “not detected”, the “Decomposition efficiency: ratio of each glycoside/aglycon within its isoflavone family” value (roasted soy flour, substrate concentration 2%, heat treatment of enzyme yes, reaction time 6 h) was 53.4% and the “Decomposition efficiency: ratio of each glycoside/aglycon within its isoflavone family” value (roasted soy flour, substrate concentration 5%, heat treatment of enzyme no, reaction time 0 h) was 54.8%. The “Decomposition efficiency: ratio of each glycoside/aglycon within its isoflavone family” value (roasted soy flour, substrate concentration 5%, heat treatment of enzyme no, reaction time 1 h) was “not detected”, the “Decomposition efficiency: ratio of each glycoside/aglycon within its isoflavone family” value (roasted soy flour, substrate concentration 5%, heat treatment of enzyme no, reaction time 3 h) was “not detected” and the “Decomposition efficiency: ratio of each glycoside/aglycon within its isoflavone family” value (roasted soy flour, substrate concentration 5%, heat treatment of enzyme no, reaction time 6 h) was “not detected”. For the same compound, the “Decomposition efficiency: ratio of each glycoside/aglycon within its isoflavone family” value (roasted soy flour, substrate concentration 5%, heat treatment of enzyme yes, reaction time 6 h) was 54.8%, the “Decomposition efficiency: ratio of each glycoside/aglycon within its isoflavone family” value (roasted soy flour, substrate concentration 10%, heat treatment of enzyme no, reaction time 0 h) was 70.3% and the “Decomposition efficiency: ratio of each glycoside/aglycon within its isoflavone family” value (roasted soy flour, substrate concentration 10%, heat treatment of enzyme no, reaction time 1 h) was “not detected”. The “Decomposition efficiency: ratio of each glycoside/aglycon within its isoflavone family” value (roasted soy flour, substrate concentration 10%, heat treatment of enzyme no, reaction time 3 h) was “not detected”, the “Decomposition efficiency: ratio of each glycoside/aglycon within its isoflavone family” value (roasted soy flour, substrate concentration 10%, heat treatment of enzyme no, reaction time 6 h) was “not detected” and the “Decomposition efficiency: ratio of each glycoside/aglycon within its isoflavone family” value (roasted soy flour, substrate concentration 10%, heat treatment of enzyme yes, reaction time 6 h) was 55.0%. For the same compound, the “Decomposition efficiency: ratio of each glycoside/aglycon within its isoflavone family” value (roasted soy flour, substrate concentration 20%, heat treatment of enzyme no, reaction time 0 h) was 59.6%, the “Decomposition efficiency: ratio of each glycoside/aglycon within its isoflavone family” value (roasted soy flour, substrate concentration 20%, heat treatment of enzyme no, reaction time 1 h) was “not detected” and the “Decomposition efficiency: ratio of each glycoside/aglycon within its isoflavone family” value (roasted soy flour, substrate concentration 20%, heat treatment of enzyme no, reaction time 3 h) was “not detected”. The “Decomposition efficiency: ratio of each glycoside/aglycon within its isoflavone family” value (roasted soy flour, substrate concentration 20%, heat treatment of enzyme no, reaction time 6 h) was “not detected”, the “Decomposition efficiency: ratio of each glycoside/aglycon within its isoflavone family” value (roasted soy flour, substrate concentration 20%, heat treatment of enzyme yes, reaction time 6 h) was 56.0% and the “Decomposition efficiency: ratio of each glycoside/aglycon within its isoflavone family” value (roasted soy flour, substrate concentration 30%, heat treatment of enzyme no, reaction time 0 h) was 55.9%. The “Decomposition efficiency: ratio of each glycoside/aglycon within its isoflavone family” value (roasted soy flour, substrate concentration 30%, heat treatment of enzyme no, reaction time 1 h) was “not detected”, the “Decomposition efficiency: ratio of each glycoside/aglycon within its isoflavone family” value (roasted soy flour, substrate concentration 30%, heat treatment of enzyme no, reaction time 3 h) was “not detected” and the “Decomposition efficiency: ratio of each glycoside/aglycon within its isoflavone family” value (roasted soy flour, substrate concentration 30%, heat treatment of enzyme no, reaction time 6 h) was “not detected”. For the same compound, the “Decomposition efficiency: ratio of each glycoside/aglycon within its isoflavone family” value (roasted soy flour, substrate concentration 30%, heat treatment of enzyme yes, reaction time 6 h) was 56.9%, the “Decomposition efficiency: ratio of each glycoside/aglycon within its isoflavone family” value (soymilk, substrate concentration 2%, heat treatment of enzyme no, reaction time 0 h) was 71.8% and the “Decomposition efficiency: ratio of each glycoside/aglycon within its isoflavone family” value (soymilk, substrate concentration 2%, heat treatment of enzyme no, reaction time 1 h) was “not detected”. For the same compound, the “Decomposition efficiency: ratio of each glycoside/aglycon within its isoflavone family” value (soymilk, substrate concentration 2%, heat treatment of enzyme no, reaction time 3 h) was “not detected”, the “Decomposition efficiency: ratio of each glycoside/aglycon within its isoflavone family” value (soymilk, substrate concentration 2%, heat treatment of enzyme no, reaction time 6 h) was “not detected” and the “Decomposition efficiency: ratio of each glycoside/aglycon within its isoflavone family” value (soymilk, substrate concentration 2%, heat treatment of enzyme yes, reaction time 6 h) was 51.8%. The “Decomposition efficiency: ratio of each glycoside/aglycon within its isoflavone family” value (soymilk, substrate concentration 5%, heat treatment of enzyme no, reaction time 0 h) was 49.4%, the “Decomposition efficiency: ratio of each glycoside/aglycon within its isoflavone family” value (soymilk, substrate concentration 5%, heat treatment of enzyme no, reaction time 1 h) was “not detected” and the “Decomposition efficiency: ratio of each glycoside/aglycon within its isoflavone family” value (soymilk, substrate concentration 5%, heat treatment of enzyme no, reaction time 3 h) was “not detected”. For the same compound, the “Decomposition efficiency: ratio of each glycoside/aglycon within its isoflavone family” value (soymilk, substrate concentration 5%, heat treatment of enzyme no, reaction time 6 h) was “not detected”, the “Decomposition efficiency: ratio of each glycoside/aglycon within its isoflavone family” value (soymilk, substrate concentration 5%, heat treatment of enzyme yes, reaction time 6 h) was 56.7% and the “Decomposition efficiency: ratio of each glycoside/aglycon within its isoflavone family” value (soymilk, substrate concentration 10%, heat treatment of enzyme no, reaction time 0 h) was 52.5%. For the same compound, the “Decomposition efficiency: ratio of each glycoside/aglycon within its isoflavone family” value (soymilk, substrate concentration 10%, heat treatment of enzyme no, reaction time 1 h) was “not detected”, the “Decomposition efficiency: ratio of each glycoside/aglycon within its isoflavone family” value (soymilk, substrate concentration 10%, heat treatment of enzyme no, reaction time 3 h) was “not detected” and the “Decomposition efficiency: ratio of each glycoside/aglycon within its isoflavone family” value (soymilk, substrate concentration 10%, heat treatment of enzyme no, reaction time 6 h) was “not detected”. For the same compound, the “Decomposition efficiency: ratio of each glycoside/aglycon within its isoflavone family” value (soymilk, substrate concentration 10%, heat treatment of enzyme yes, reaction time 6 h) was 56.8%, the “Decomposition efficiency: ratio of each glycoside/aglycon within its isoflavone family” value (soymilk, substrate concentration 20%, heat treatment of enzyme no, reaction time 0 h) was 52.4% and the “Decomposition efficiency: ratio of each glycoside/aglycon within its isoflavone family” value (soymilk, substrate concentration 20%, heat treatment of enzyme no, reaction time 1 h) was “not detected”. For the same compound, the “Decomposition efficiency: ratio of each glycoside/aglycon within its isoflavone family” value (soymilk, substrate concentration 20%, heat treatment of enzyme no, reaction time 3 h) was “not detected”, the “Decomposition efficiency: ratio of each glycoside/aglycon within its isoflavone family” value (soymilk, substrate concentration 20%, heat treatment of enzyme no, reaction time 6 h) was “not detected” and the “Decomposition efficiency: ratio of each glycoside/aglycon within its isoflavone family” value (soymilk, substrate concentration 20%, heat treatment of enzyme yes, reaction time 6 h) was 55.5%. The “Decomposition efficiency: ratio of each glycoside/aglycon within its isoflavone family” value (soymilk, substrate concentration 30%, heat treatment of enzyme no, reaction time 0 h) was 50.9%, the “Decomposition efficiency: ratio of each glycoside/aglycon within its isoflavone family” value (soymilk, substrate concentration 30%, heat treatment of enzyme no, reaction time 1 h) was “not detected” and the “Decomposition efficiency: ratio of each glycoside/aglycon within its isoflavone family” value (soymilk, substrate concentration 30%, heat treatment of enzyme no, reaction time 3 h) was “not detected”. The “Decomposition efficiency: ratio of each glycoside/aglycon within its isoflavone family” value (soymilk, substrate concentration 30%, heat treatment of enzyme no, reaction time 6 h) was “not detected” and the “Decomposition efficiency: ratio of each glycoside/aglycon within its isoflavone family” value (soymilk, substrate concentration 30%, heat treatment of enzyme yes, reaction time 6 h) was 55.8%.
